Laboratory results from US20250186396A1, “COMPOSITIONS AND METHODS FOR THE TREATMENT OF GLIOBLASTOMA WITH A DUAL TARGETING ANTI-TUMOR COMPOSITION” (Northwestern University, priority 2023, published 2025).

Columns and labels:
005 GSC tumors = assay: Flow cytometry of tumor-derived immune cells, 005 GSC tumors; assay type: in vivo, C57BL/6 mice
Method: Mice and Intracranial Xenograft Tumor Models. Female C57BL/6 mice at 3 to 4 weeks of age were purchased from the Jackson Laboratory (#0000664). All animals were grouped by 5 mice per cage and maintained in IVC System (San Diego, CA) for a week before the experiment. All animal experiments were performed with the approval of the Institutional Animal Care and Use Committee (IACUC) at Northwestern University. The intracranial xenograft tumor models were established previously. In brief, mice were anesthetized by isoflurane through IMPAC6 Anesthesia System. Then a dental drill was used to open a small hole in the skull of mice 1.2 mm anterior and 3.0 mm lateral to the bregma. Mice were placed into the stereotactic apparatus, and 5 μL 005 GSC, CT2A, or GL261 cells in FBS-free culture medium were injected into the right caudate nucleus 3 mm below the surface of the brain using a 10 μL Hamilton syringe with an unbeveled 30-gauge needle. The incision was closed using Vetbond glue. Meloxicam (20 mg/kg, daily) was subcutaneously injected for pain relief for 3 days after surgery. Mice received the treatment with BAPN (2 g/L in drinking water) on day 4, SR9009 (100 mg/kg body weight, i.p.) daily for 10 days beginning at day 7 post-orthotopic injection, anti-PD1 (10 mg/kg body weight, i.p.) on days 11, 14, and 17 post-orthotopic injection, and/or clodronate liposomes (200 μL, once every 3 days) starting at day 4 post-orthotopic injection. Mice with neurological deficits or moribund appearance were sacrificed according to the IACUC protocol. At the end of the experiment, the brains of mice were collected, either fixed in 4% paraformaldehyde (PFA) (ThermoFisher Scientific, #J61899.AK) after transcardiac perfusion with PBS for optimal cutting temperature (OCT)-cryosectioning or processed using the percoll density gradient cell separation method to isolate tumor-derived immune cells for flow cytometry analysis.
Tumor-derived immune cells isolation. Mice with neurologic deficits or moribund appearance were sacrificed to harvest their brains. Immune cells in the brain tumors were isolated using the percoll density gradient cell separation method as previously described. In brief, after perfusion with PBS, brains were homogenized on ice with pre-cold 10 mL HBSS. Then cells were spun down at 1,500 rpm for 10 minutes at 4° C., and were resuspended in 30% Percoll (GE Healthcare, #17-0891-01). The solution was gently laid on top of the 70% Percoll and centrifuged at 1,200 g for 30 minutes at 4° C. with accelerator 7 and breaker 0. After removing myelin and debris, the interphase was collected and centrifuged at 1,500 rpm for 10 minutes at 4° C. […]
Flow cytometry. […] Samples were read through the BD FACSymphony or BD LSRFortessa flow cytometer and analyzed in FlowJo v10.8.1.

005 GSCs = assay: Survival of mice intracranially implanted with 005 GSCs; assay type: in vivo, C57BL/6 mice; conditions: 005 GSCs 2×10^5 cells/mouse; BAPN 2 g/L drinking water from day 4; SR9009 100 mg/kg i.p. 10 days from day 7; anti-PD1 10 mg/kg i.p. days 11, 14, 17; radiation 2.5 Gy 4 days from day 7
Method: (§1) Mice and Intracranial Xenograft Tumor Models. Female C57BL/6 mice at 3 to 4 weeks of age were purchased from the Jackson Laboratory (#0000664). All animals were grouped by 5 mice per cage and maintained in IVC System (San Diego, CA) for a week before the experiment. All animal experiments were performed with the approval of the Institutional Animal Care and Use Committee (IACUC) at Northwestern University. The intracranial xenograft tumor models were established previously. In brief, mice were anesthetized by isoflurane through IMPAC6 Anesthesia System. Then a dental drill was used to open a small hole in the skull of mice 1.2 mm anterior and 3.0 mm lateral to the bregma. Mice were placed into the stereotactic apparatus, and 5 μL 005 GSC, CT2A, or GL261 cells in FBS-free culture medium were injected into the right caudate nucleus 3 mm below the surface of the brain using a 10 μL Hamilton syringe with an unbeveled 30-gauge needle. The incision was closed using Vetbond glue. Meloxicam (20 mg/kg, daily) was subcutaneously injected for pain relief for 3 days after surgery. […]
(§2) Statistical analysis. […] The survival analysis for animal models was determined by conducting Log-rank (Mantel-Cox) test. […]

CT2A cells = assay: Survival of mice intracranially implanted with CT2A cells; assay type: in vivo, C57BL/6 mice; conditions: CT2A 2×10^4 cells/mouse; BAPN 2 g/L drinking water from day 4; SR9009 100 mg/kg i.p. 10 days from day 7; anti-PD1 10 mg/kg i.p. days 11, 14, 17; radiation 2.5 Gy 4 days from day 7
Method: as §1, §2

HMC3 microglia = assay: Transwell migration assay of HMC3 microglia with U87 conditioned media; assay type: cell-based; conditions: conditioned media from U87 cells pretreated with BAPN 200 μM; 10 hours
Method: Migration assay. To study the relationship between macrophages and microglia, HMC3 microglia or THP-1 macrophages were seeded into the 24-well plates (receiver wells) using serum-containing culture medium for 24 hours to reach 40-60% confluence and then stimulated with or without U87 cell CM for additional 24 hours. After that, cells were washed with PBS twice and cultured in serum-free culture medium. For upper chambers, THP-1 macrophages (2×10^5) and HMC3 microglia (5×10^4) were suspended in serum-free culture medium and seeded into […] (Corning, #3421) and […] (Corning, #3422) 24-well Transwell inserts, respectively. To study the role of GBM cells on microglia migration, HMC3 microglia (5×10^4) were suspended in serum-free culture medium and seeded into 8.0 μm inserts. SIM-A9 microglia (1×10^5) and THP-1 macrophages (1×10^5) were suspended in serum-free culture medium and seeded into 5.0 μm inserts. The CM from LOX-depleted or inhibited U87 cells, LOX-overexpressed GL261 cells, or SR9009-treated U87 cells were added to the receiver wells, respectively. After 10 hours, migrated cells were fixed with 4% PFA (ThermoFisher, #J61899.AK) for 30 minutes and stained with crystal violet (Sigma-Aldrich, #C-3886) for another 30 minutes. The membrane inserts were washed with water and imaged under an EVOS microscope. The number of transferred cells was counted using ImageJ.

| SMILES | CD45+CD3+CD8+CD69+ activated T cells (005 GSC tumors) | CD45+CD3+CD8+IFN-γ+ activated T cells (005 GSC tumors) | survival (005 GSCs) | survival (CT2A cells) | migration of HMC3 microglia (HMC3 microglia) |
| --- | --- | --- | --- | --- | --- |
| N#CCCN [BAPN, β-aminopropionitrile] | Increases | Increases | extended the survival | extended the survival | increased the migration ability |
| CCOC(=O)N1CCC(CN(Cc2ccc(Cl)cc2)Cc2ccc([N+](=O)[O-])s2)C1 (stereo not shown) [SR9009] | Increases | Increases | – | – | – |
